# Experimental data as given in patent US20010006961A1, “METHOD FOR IMPROVING FRUIT YIELDS FROM BANANA PLANTS” (priority 1995, published 2001).
# What was measured:
# banana plants [1] = assay: In vivo test on a banana plantation on a soil of different nature, treatment carried out with an aeroplane (Example 2); details: applied by aeroplane, control 37.4 kg
# Text: Example 2: In vivo test of a composition comprising fosetyl-Al on a banana plantation:
# Example 1 is repeated, a plantation situated on a soil of different nature being treated and the treatment being carried out with an aeroplane. The fosetyl-Al doses applied are shown in the table below, along with the average banana bunch weights obtained.
# banana plants [2] = assay: In vivo test of application by injection into the growing pseudostem (Example 3); details: 6 kg/ha (3 g per plant) injected into pseudostem 1 month before flowering; harvest 4 months later; control 28.3 kg
# Method: Example 3: In vivo test of the application of a composition comprising fosetyl-Al by injection into the growing pseudostem:
# (§1) The test is carried out on a plantation of banana plants which have reached a stage of regular fruit production. This plantation is furthermore treated periodically throughout the duration of the test by means of a conventional preventive treatment against various fungal diseases, as well as against harmful insects and nematodes, which treatment is known to have no effect of the type of those observed below with fosetyl-Al.
# Fosetyl-Al is injected into the pseudostem of the growing banana plants, in the proportion of 6 kg/ha (i.e. 3 g of fosetyl-Al per plant), 1 month before flowering.
# The fruits are harvested 4 months later. The average weight of the bunch of bananas is 31.4 kg. The average weight of a bunch of bananas corresponding to the control test (untreated banana plants) is 28.3 kg.
# banana plants [3] = assay: In vivo test on a banana plantation, fosetyl-Al wettable powder applied with a knapsack sprayer (Example 1)
# Method: Example 1: In viva test of a composition comprising fosetyl-Al on a banana plantation:
# as §1, with “protective” for “preventive”
# The duration of the test is 2 years.
# At the beginning of the first year, treatment with fosetyl-Al is carried out. For this, use is made of a wettable powder formulation of fosetyl-Al diluted in water before use, which is applied by means of a knapsack sprayer. The application dose is 6.4 kg of fosetyl-Al per hectare. This application of fosetyl-Al is repeated every 3 months throughout the duration of the test.
# The average weight of a bunch of bananas harvested per plant is measured. The mean value of this weight, during the 2nd year of the test, is equal to 39.8 kg.
# In comparison, a control test was carried out, in which there was no application of fosetyl-Al, the protocol otherwise being identical. This test gave 38.4 kg as the average value of the weight of a bunch of bananas harvested per plant, measured under the same conditions as above.
smiles,measurement,setting,value
"CCO[PH](=O)[O-].CCO[PH](=O)[O-].CCO[PH](=O)[O-].[Al+3] [fosetyl-Al, aluminium tris(O-ethyl phosphonate)]",Average weight of a bunch,banana plants [1]; fosetyl-Al dose 3.2 kg/ha,38.9 kg
same,Average weight of a bunch,banana plants [1]; fosetyl-Al dose 6.4 kg/ha,39.7 kg
same,average weight of the bunch of bananas,banana plants [2],31.4 kg
same,average weight of a bunch of bananas harvested per plant,"banana plants [3]; 6.4 kg fosetyl-Al per hectare, sprayed every 3 months, mean value during 2nd year of the test, control 38.4 kg",39.8 kg
same,"difference in average bunch weight versus control, relative value","banana plants [3]; 6.4 kg/ha every 3 months, 39.8 kg vs control 38.4 kg",5%
same,additional amount of fruit,banana plants [3]; in the case where the yield of the banana plantation is 40 tonnes/hectare of bananas,~2 tonnes
